{"source": "paper PMC8878317", "about": "“Chemogenomics identifies acetyl-coenzyme A synthetase as a target for malaria treatment and prevention” (Cell Chemical Biology, 2022)", "system": "P. falciparum 3D7 parasites", "assay": "Metabolomic profiling of compound-treated parasites (LC/MS);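 on Metabolite data: 3-Phosphoglycerate: Log2 fold change in abundance versus untreated parasite controls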;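 on Metabolite data: Myo-Inositol: Log2 fold change in abundance versus untreated parasite controls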;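 on Metabolite data: N-Carbamoyl-L-Aspartate: Log2 fold change in abundance versus untreated parasite controls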;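 on Metabolite data: Nicotinate: Log2 fold change in abundance versus untreated parasite controls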", "assay_type": "cell-based", "set-up": "Metabolite data: dTMP / Metabolite data: GMP / Metabolite data: S-Adenosyl-L-Homocysteine / Metabolite data: 1_3-Bisphosphoglyceric acid: scale not given here", "method": "The metabolite extraction protocol was performed as described elsewhere ([Allman et al., 2016]). Briefly, 1 mL of trophozoites that were magnetically purified to a concentration of 1×10^8 parasites/mL were placed into wells with 4 mL of RPMI 1640 media and allowed to recover for one hour. […] The culture was incubated for another 2.5 hr. The culture was centrifuged and quenched with 90% methanol containing 0.25 μM ^13C,^15N-Labeled-Aspartate, vortexed, and centrifuged. The supernatant was transferred to a new tube and dried for storage. Prior to analysis, the samples were resuspended to a final concentration of 1×10^8 parasites/mL in a solution of 3% methanol:water containing 1 μM chlorpropamide as an internal standard.\nThe chromatographic conditions used in this experiment were performed with slight modifications from previous methods ([Zhang et al., 2018]). Briefly, a Waters XSelect HSS C18 column was used on a gradient reverse-phase chromatographic configuration with 97:3 water:methanol with 10 mM tributylamine and 15 mM acetic acid (solvent A) and methanol (solvent B). A Thermo-Scientific Exactive Plus Orbitrap mass spectrometer was operated in negative mode for the detection of the metabolites. Peak picking and integration were performed using El-Maven LC/MS data processing software. The peak data were then exported to Excel where metabolite areas were normalized to the internal standards, blank subtracted, and averaged by condition."}
{"smiles": "CCN(CC)S(=O)(=O)c1ccc(Cl)c(C(=O)Nc2ccc3nc(C)sc3c2)c1", "note": "[MMV019721-1]", "values": [{"measurement": "Metabolite data: 1_3-Bisphosphoglyceric acid", "value": -0.1327}, {"measurement": "Metabolite data: 2_3-Diphosphoglyceric acid", "value": -0.1327}, {"measurement": "Metabolite data: 3-Phosphoglycerate", "value": 0.1031}, {"measurement": "Metabolite data: 4-Aminobutyrate", "value": 0.07842}, {"measurement": "Metabolite data: 4-Phosphopantothenate", "value": -0.4201}, {"measurement": "Metabolite data: 4-phosphopantetheine", "value": 0.1181}, {"measurement": "Metabolite data: 5-aminopentanoic acid", "value": 0.1488}, {"measurement": "Metabolite data: 5-phosphoribosyl-1-pyrophosphate", "value": -0.2633}, {"measurement": "Metabolite data: 6-Phospho-D-Gluconate", "value": -0.03558}, {"measurement": "Metabolite data: ADP-D-Glucose", "value": -0.0516}, {"measurement": "Metabolite data: Acetyl-CoA", "value": -1.632}, {"measurement": "Metabolite data: Acetyllysine", "value": -1.142}, {"measurement": "Metabolite data: Aconitate", "value": 0.3403}, {"measurement": "Metabolite data: CDP", "value": 0.8015}, {"measurement": "Metabolite data: CDP-Ethanolamine", "value": -0.104}, {"measurement": "Metabolite data: CDP-choline", "value": -0.1284}, {"measurement": "Metabolite data: CMP", "value": 0.9966}, {"measurement": "Metabolite data: CTP", "value": 0.6705}, {"measurement": "Metabolite data: Citrate/Isocitrate", "value": 0.04997}, {"measurement": "Metabolite data: Cyclic-AMP", "value": 0.2994}, {"measurement": "Metabolite data: Dihydroorotate", "value": -0.5549}, {"measurement": "Metabolite data: FAD", "value": 0.1056}, {"measurement": "Metabolite data: FMN", "value": -0.0123}, {"measurement": "Metabolite data: Fructose-1,6-Bisphosphate", "value": -0.009501}, {"measurement": "Metabolite data: Fumarate", "value": 0.02182}, {"measurement": "Metabolite data: GDP", "value": 0.2889}, {"measurement": "Metabolite data: GMP", "value": 0.4991}, {"measurement": "Metabolite data: GTP", "value": 0.06975}, {"measurement": "Metabolite data: Glucose-1/6-Phosphate", "value": -0.427}, {"measurement": "Metabolite data: Glutathione Disulfide", "value": 0.05831}, {"measurement": "Metabolite data: Hexose", "value": 0.379}, {"measurement": "Metabolite data: Hydroxyisocaproic acid", "value": -0.1664}, {"measurement": "Metabolite data: Indole", "value": 0.2013}, {"measurement": "Metabolite data: Ketoleucine", "value": -0.05747}, {"measurement": "Metabolite data: L-arginino-succinate", "value": 0.0004889}, {"measurement": "Metabolite data: Lactate", "value": 0.02998}, {"measurement": "Metabolite data: Malate", "value": 0.2897}, {"measurement": "Metabolite data: Myo-Inositol", "value": 0.2086}, {"measurement": "Metabolite data: N-Acetyl-Glutamate", "value": -0.6054}, {"measurement": "Metabolite data: N-Acetyl-L-Alanine", "value": 0.6768}, {"measurement": "Metabolite data: N-Acetyl-L-Ornithine", "value": -0.7962}, {"measurement": "Metabolite data: N-Carbamoyl-L-Aspartate", "value": -1.055}, {"measurement": "Metabolite data: NAD+", "value": 0.01132}, {"measurement": "Metabolite data: NADH", "value": 0.3116}, {"measurement": "Metabolite data: NADP+", "value": -0.07183}, {"measurement": "Metabolite data: NADPH", "value": 0.3145}, {"measurement": "Metabolite data: Nicotinate", "value": -0.004899}, {"measurement": "Metabolite data: Octulose 8/1-Phosphate", "value": 0.05155}, {"measurement": "Metabolite data: Orotate", "value": -0.6691}, {"measurement": "Metabolite data: PD", "value": -0.67}, {"measurement": "Metabolite data: PE", "value": -0.6545}, {"measurement": "Metabolite data: PEEK", "value": -0.6134}, {"measurement": "Metabolite data: Phenol Red", "value": 0.04234}, {"measurement": "Metabolite data: Pyroglutamic acid", "value": 0.6121}, {"measurement": "Metabolite data: S-Adenosyl-L-Homocysteine", "value": -0.2319}, {"measurement": "Metabolite data: S-methyl-5'-thioadenosine", "value": -0.02605}, {"measurement": "Metabolite data: SD", "value": -0.5163}, {"measurement": "Metabolite data: Sedoheptulose Bisphosphate", "value": -0.09842}, {"measurement": "Metabolite data: UDP", "value": 0.4977}, {"measurement": "Metabolite data: UDP-D-Glucose", "value": 0.03674}, {"measurement": "Metabolite data: UDP-D-Glucuronate", "value": 0.09403}, {"measurement": "Metabolite data: UDP-N-Acetyl-Glucosamine", "value": -0.09294}, {"measurement": "Metabolite data: UMP", "value": 0.6643}, {"measurement": "Metabolite data: UTP", "value": 0.267}, {"measurement": "Metabolite data: a-ketoglutarate", "value": 0.1182}, {"measurement": "Metabolite data: acetyl-aspartate", "value": 0.3762}, {"measurement": "Metabolite data: arginine", "value": 0.5929}, {"measurement": "Metabolite data: asparagine", "value": -0.2373}, {"measurement": "Metabolite data: aspartate", "value": 0.131}, {"measurement": "Metabolite data: biotin", "value": -0.04985}, {"measurement": "Metabolite data: chlorpropamide", "value": 0.3559}, {"measurement": "Metabolite data: coenzyme A", "value": 0.324}, {"measurement": "Metabolite data: dAMP", "value": 0.02964}, {"measurement": "Metabolite data: dATP", "value": 0.04443}, {"measurement": "Metabolite data: dCDP", "value": 0.4313}, {"measurement": "Metabolite data: dCMP", "value": 0.6234}, {"measurement": "Metabolite data: dCTP", "value": 0.2767}, {"measurement": "Metabolite data: dGDP/ADP", "value": 0.453}, {"measurement": "Metabolite data: dGMP/AMP", "value": 0.01705}, {"measurement": "Metabolite data: dGTP/ATP", "value": -0.2944}, {"measurement": "Metabolite data: dTDP", "value": 0.442}, {"measurement": "Metabolite data: dTMP", "value": 0.5345}, {"measurement": "Metabolite data: dTTP", "value": -0.02333}, {"measurement": "Metabolite data: folate", "value": 0.09364}, {"measurement": "Metabolite data: glucono-lactone", "value": 0.02131}, {"measurement": "Metabolite data: glutamate", "value": 0.09413}, {"measurement": "Metabolite data: glutamine", "value": 0.06047}, {"measurement": "Metabolite data: glutathione", "value": -0.1419}, {"measurement": "Metabolite data: histidine", "value": -0.01478}, {"measurement": "Metabolite data: hydroxyproline/Aminolevulinate", "value": 0.7882}, {"measurement": "Metabolite data: isoleucine", "value": 0.1307}, {"measurement": "Metabolite data: leucine", "value": 0.06401}, {"measurement": "Metabolite data: maleic acid", "value": 0.03547}, {"measurement": "Metabolite data: methionine", "value": 0.07829}, {"measurement": "Metabolite data: nicotinamide mononucleotide", "value": -0.2621}, {"measurement": "Metabolite data: orotidine-5'-phosphate", "value": -2.856}]}
